US11370774B2, “Substituted benzofuran, benzopyrrole, benzothiophene, and structurally related complement inhibitors” (BioCryst Pharmaceuticals, Inc., priority 2018, dated 2022)

What follows are molecules tested against Factor D (Homo sapiens (Human), UniProt P00746) (assay: Factor D esterolytic assay (Z-Lys-SBzl substrate, DTNB, 405 nm)). Conditions: Z-Lys-SBzl 1.29 mM, pH 7.5, 10% DMSO, tested a minimum of three times, read-out: Measured Ki (IC50) Value for Compounds: IC50.
Assay type: biochemical
Outline: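 Thioester hydrolysis (Z-Lys-SBzl, 1.29 mM) by human Factor D ([…]) detected through DTNB color at 405 nm over 600 sec, minus 690 nm background. Buffer: 100 mM HEPES pH 7.5, 500 mM NaCl, 10% DMSO; optional room-temperature preincubation before substrate. IC50 derived from percent rate inhibition; at least three runs.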

Sequence of Factor D (P00746 26-253): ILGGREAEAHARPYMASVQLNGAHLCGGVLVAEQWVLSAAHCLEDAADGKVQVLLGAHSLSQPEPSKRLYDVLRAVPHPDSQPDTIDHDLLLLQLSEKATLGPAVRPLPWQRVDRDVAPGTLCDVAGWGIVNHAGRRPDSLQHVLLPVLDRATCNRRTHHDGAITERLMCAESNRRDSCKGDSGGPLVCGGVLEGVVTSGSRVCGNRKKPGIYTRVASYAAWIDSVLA

Row | IC50 [nM] | SMILES
1 | < 1000 | NCc1cccc(-c2cc(COc3ccccc3CC(=O)O)cc3c2ccn3Cc2ccccc2)c1 [Compound 362e, 2-(2-((4-(3-(aminomethyl)phenyl)-1-benzyl-1H-indol-6-yl)methoxy)phenyl)acetic acid]
2 | < 1000 | NCc1nccc(-c2cc(COc3ccccc3CC(=O)O)cc3occc23)c1F [Compound 174c, 2-(2-((4-(2-(aminomethyl)-3-fluoropyridin-4-yl)benzofuran-6-yl)methoxy)phenyl)acetic acid]
3 | < 1000 | COCc1cc2cc(COc3cc(C(C)=O)ccc3CC(=O)O)cc(-c3ccnc(CN)c3F)c2o1 [Compound 530c, 2-(4-acetyl-2-((7-(2-(aminomethyl)-3-fluoropyridin-4-yl)-2-(methoxymethyl)benzofuran-5-yl)methoxy)phenyl)acetic acid]
4 | > 10000 | Cn1ccc2cc(COc3ccccc3CC(=O)O)cc(-c3cccc(CN)c3)c21 [Compound 218f, 2-(2-((7-(3-(aminomethyl)phenyl)-1-methyl-1H-indol-5-yl)methoxy)phenyl)acetic acid]
5 | < 1000 | COCc1cc2cc(COc3cc(F)ccc3CC(=O)O)cc(-c3cccc(CN)c3)c2o1 [Compound 477c, 2-(2-((7-(3-(aminomethyl)phenyl)-2-(methoxymethyl)benzofuran-5-yl)methoxy)-4-fluorophenyl)acetic acid]
6 | < 1000 | NCc1cccc(-c2c(F)c(COc3ccccc3CC(=O)O)cc3ccoc23)c1 [Compound 473e, 2-(2-((7-(3-(aminomethyl)phenyl)-6-fluorobenzofuran-5-yl)methoxy)phenyl)acetic acid]
7 | < 1000 | Cc1ccc(CC(=O)O)c(OCc2cc(-c3cccc(CN)c3)c3oc(F)cc3c2)c1 [Compound 299c, 2-(2-((7-(3-(aminomethyl)phenyl)-2-fluorobenzofuran-5-yl)methoxy)-4-methylphenyl)acetic acid]
8 | < 1000 | NCc1cccc(-c2cc(COc3cc(F)ccc3CC(=O)O)cc3ccoc23)c1F [Compound 363b, 2-(2-((7-(3-(aminomethyl)-2-fluorophenyl)benzofuran-5-yl)methoxy)-4-fluorophenyl)acetic acid]
9 | 1000 to 10000 | NCc1cccc(-c2cc(COc3ccc(C(N)=O)cc3CC(=O)O)cc3ccoc23)c1 [Compound 244c, 2-(2-((7-(3-(aminomethyl)phenyl)benzofuran-5-yl)methoxy)-5-carbamoylphenyl)acetic acid]
10 | < 1000 | Cc1c(COc2ccccc2CC(=O)O)cc2ccoc2c1-c1cccc(CN)c1 [Compound 413m, 2-(2-((7-(3-(aminomethyl)phenyl)-6-methylbenzofuran-5-yl)methoxy)phenyl)acetic acid]
11 | < 1000 | Cn1ccc2c(-c3cccc(CN)c3)cc(C(=O)Nc3ccccc3CC(=O)O)cc21 [Compound 45e, 2-(2-(4-(3-(aminomethyl)phenyl)-1-methyl-1H-indole-6-carboxamido)phenyl)acetic acid]
12 | < 1000 | NCc1cccc(-c2cc(COc3c(CC(=O)O)ccc4ccccc34)cc3ccoc23)c1 [Compound 399d, 2-(1-((7-(3-(aminomethyl)phenyl)benzofuran-5-yl)methoxy)naphthalen-2-yl)acetic acid]
13 | < 1000 | COCc1cc2cc(COc3cc(C)ccc3CC(=O)O)cc(-c3ccnc(CN)c3F)c2o1 [Compound 453d, 2-(2-((7-(2-(aminomethyl)-3-fluoropyridin-4-yl)-2-(methoxymethyl)benzofuran-5-yl)methoxy)-4-methylphenyl)acetic acid]
14 | < 1000 | NCc1cccc(-c2cc(COc3ncccc3CC(=O)O)cc3ccoc23)c1 [Compound 231c, 2-(2-((7-(3-(aminomethyl)phenyl)benzofuran-5-yl)methoxy)pyridin-3-yl)acetic acid]
15 | < 1000 | COc1ccc(CC(=O)O)c(OCc2cc(-c3cccc(CN)c3F)c3ccn(C(C)C)c3c2)c1 [Compound 357b, 2-(2-((4-(3-(aminomethyl)-2-fluorophenyl)-1-isopropyl-1H-indol-6-yl)methoxy)-4-methoxyphenyl)acetic acid]
16 | < 1000 | CCc1ccc(CC(=O)O)c(OCc2cc(-c3ccnc(CN)c3)c3occc3c2)c1 [Compound 371c, 2-(2-((7-(2-(aminomethyl)pyridin-4-yl)benzofuran-5-yl)methoxy)-4-ethylphenyl)acetic acid]
17 | < 1000 | COCc1cc2cc(COc3cc(OC)ccc3CC(=O)O)cc(-c3ccnc(CN)c3)c2o1 [Compound 472b, 2-(2-((7-(2-(aminomethyl)pyridin-4-yl)-2-(methoxymethyl)benzofuran-5-yl)methoxy)-4-methoxyphenyl)acetic acid]
18 | 1000 to 10000 | CCOC(=O)Cc1ccccc1OCc1nc(-c2cccc(CN)c2)nn2cccc12 [Compound 25c, ethyl 2-(2-((2-(3-(aminomethyl)phenyl)pyrrolo[2,1-f][1,2,4]triazin-4-yl)methoxy)phenyl)acetate]

Row | IC50 [nM] | SMILES
19 | 1000 to 10000 | NCc1cccc(-c2cc(NC(=O)[C@@H]3CCCN3CC(=O)O)cc3ccoc23)c1 [Compound 250f, (S)-2-(2-((7-(3-(aminomethyl)phenyl)benzofuran-5-yl)carbamoyl)pyrrolidin-1-yl)acetic acid]
20 | < 1000 | NCc1cccc(-c2nc(COc3ccccc3CC(=O)O)nn3cccc23)c1 [Compound 8e, 2-(2-((4-(3-(aminomethyl)phenyl)pyrrolo[2,1-f][1,2,4]triazin-2-yl)methoxy)phenyl)acetic acid]
21 | < 1000 | Cc1cc2cc(COc3cc(C(N)=O)ccc3CC(=O)O)cc(-c3cccc(CN)c3)c2o1 [Compound 429c, 2-(2-((7-(3-(aminomethyl)phenyl)-2-methylbenzofuran-5-yl)methoxy)-4-carbamoylphenyl)acetic acid]
22 | < 1000 | NCCNCc1cc2cc(COc3ccccc3CC(=O)O)cc(-c3cccc(CN)c3)c2o1 [Compound 196d, 2-(2-((2-(((2-aminoethyl)amino)methyl)-7-(3-(aminomethyl)phenyl)benzofuran-5-yl)methoxy)phenyl)acetic acid]
23 | < 1000 | COc1ccc(CC(=O)O)c(OCc2cc(-c3ccnc(CN)c3F)c3ccn(C(C)C)c3c2)c1 [Compound 448c, 2-(2-((4-(2-(aminomethyl)-3-fluoropyridin-4-yl)-1-isopropyl-1H-indol-6-yl)methoxy)-4-methoxyphenyl)acetic acid]
24 | < 1000 | Cc1ccc(CC(=O)O)c(OCc2cc(-c3cccc(CN)c3)c3occc3c2)c1C [Compound 292f, 2-(2-((7-(3-(aminomethyl)phenyl)benzofuran-5-yl)methoxy)-3,4-dimethylphenyl)acetic acid]
25 | < 1000 | COc1ncc(-c2ccc(CC(=O)O)c(OCc3cc(-c4cccc(CN)c4)c4occc4c3)c2)cc1C [Compound 322d, 2-(2-((7-(3-(aminomethyl)phenyl)benzofuran-5-yl)methoxy)-4-(6-methoxy-5-methylpyridin-3-yl)phenyl)acetic acid]
26 | < 1000 | NCc1cc(F)cc(-c2cc(COc3ccccc3CC(=O)O)cc3ccoc23)c1F [Compound 256c, 2-(2-((7-(3-(aminomethyl)-2,5-difluorophenyl)benzofuran-5-yl)methoxy)phenyl)acetic acid]
27 | < 1000 | C[C@@H](N)c1cccc(-c2cc(COc3ccccc3CC(=O)O)cc3ccoc23)c1F [Compound 65c, (R)-2-(2-((7-(3-(1-aminoethyl)-2-fluorophenyl)benzofuran-5-yl)methoxy)phenyl)acetic acid]
28 | < 1000 | Cc1ccc(CC(=O)O)c(OCc2cc(-c3cccc(CN)c3F)c3oc(F)cc3c2)c1 [Compound 524b, 2-(2-((7-(3-(aminomethyl)-2-fluorophenyl)-2-fluorobenzofuran-5-yl)methoxy)-4-methylphenyl)acetic acid]
29 | < 1000 | CCN(CC)c1ccc(CC(=O)O)c(OCc2cc(-c3cccc(CN)c3)c3occc3c2)c1 [Compound 306f, 2-(2-((7-(3-(aminomethyl)phenyl)benzofuran-5-yl)methoxy)-4-(diethylamino)phenyl)acetic acid]
30 | < 1000 | CC(C)n1ccc2c(-c3ccnc(CN)c3F)cc(COc3ccc(F)cc3CC(=O)O)cc21 [Compound 513c, 2-(2-((4-(2-(aminomethyl)-3-fluoropyridin-4-yl)-1-isopropyl-1H-indol-6-yl)methoxy)-5-fluorophenyl)acetic acid]
31 | < 1000 | COCc1cc2cc(COc3cc(C)ccc3CC(=O)O)cc(-c3ccnc(CN)c3)c2o1 [Compound 454d, 2-(2-((7-(2-(aminomethyl)pyridin-4-yl)-2-(methoxymethyl)benzofuran-5-yl)methoxy)-4-methylphenyl)acetic acid]
32 | < 1000 | NCc1cccc(-c2cc(COc3cc(C(F)(F)F)ccc3CC(=O)O)cc3ccoc23)c1 [Compound 288f, 2-(2-((7-(3-(aminomethyl)phenyl)benzofuran-5-yl)methoxy)-4-(trifluoromethyl)phenyl)acetic acid]
33 | < 1000 | NCc1cccc(-c2cc(CC(=O)N3C[C@H](F)C[C@H]3C(=O)NCc3cccc(Cl)c3F)cc3ccoc23)c1 [Compound 368c, (2S,4R)-1-(2-(7-(3-(aminomethyl)phenyl)benzofuran-5-yl)acetyl)-N-(3-chloro-2-fluorobenzyl)-4-fluoropyrrolidine-2-carboxamide]
34 | < 1000 | CC(C)n1ccc2c(-c3ccnc(CN)c3)cc(COc3ccc(F)cc3CC(=O)O)cc21 [Compound 497d, 2-(2-((4-(2-(aminomethyl)pyridin-4-yl)-1-isopropyl-1H-indol-6-yl)methoxy)-5-fluorophenyl)acetic acid]
35 | < 1000 | CC(C)c1ccc(CC(=O)O)c(OCc2cc(-c3cccc(CN)c3F)c3occc3c2)c1 [Compound 307f, 2-(2-((7-(3-(aminomethyl)-2-fluorophenyl)benzofuran-5-yl)methoxy)-4-isopropylphenyl)acetic acid]
36 | 1000 to 10000 | C[C@H](N)c1cccc(-c2nc(C(=O)Nc3ccccc3CC(=O)O)c3cccn3n2)c1 [Compound 29d, (S)-2-(2-(2-(3-(1-aminoethyl)phenyl)pyrrolo[2,1-f][1,2,4]triazine-4-carboxamido)phenyl)acetic acid]
